Columns and labels:
[1] = tested on: Cotton (CT); test: Pre-emergence herbicide test; format: in vivo, Gossypium hirsutum var. DPL smooth leaf; settings: Gossypium hirsutum, 336 h, 8 lb/acre, two weeks after treatment
Procedure, shortened: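 Visual injury/control ratings were taken at two weeks post-spray. Pots seeded a day earlier received compound pre-emergence at 8 lbs/acre, or 4 lbs/acre, in a 38 gallon/acre spray volume, and were then held in the greenhouse, watered only from below.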

[2] = tested on: Amaranth pigweed (PW); test: Post-emergence herbicide test; format: in vivo, Amaranthus retroflexus; settings: 336 h, 8 lb/acre, two weeks after treatment
Procedure, shortened: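 Visual injury or control ratings were made two weeks after spraying, with greenhouse watering by sub-irrigation only. Treatment was post-emergence, when pigweed seedlings had 1 or 2 true leaves, at 8 lbs active compound per acre (4 lbs/acre formulations also made) in a 38 gallons-per-acre spray volume.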

[3] = tested on: Crabgrass (CG); test: Pre-emergence herbicide test; format: in vivo, Digitaria sanquinalis; settings: Digitaria sanguinalis, pre-emergence, 336 h; 8 lb/acre; two weeks after treatment
Procedure, shortened: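 Crabgrass (Digitaria sanquinalis) was surface seeded in 3' plastic pots of potting soil, covered with screened soil, and watered by sub-irrigation in greenhouse trays. Pots were seeded one day before spraying in a hood with a moving belt and fixed nozzle. Plants stayed in the greenhouse on sub-irrigation, and pre-emergence control was rated visually two weeks after treatment.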

[4] = tested on: Bean (BN); test: Post-emergence herbicide test; format: in vivo, Phaseolus vulgaris var. Black Valentine; settings: Phaseolus vulgaris, post-emergence, 336 h; 8 lb/acre; two weeks after treatment
Procedure, shortened: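 Bean seedlings (Phaseolus vulgaris var. Black Valentine) were grown in potting soil in 3' pots until the primary leaves expanded. They were then sprayed under a hood with a removable belt and fixed nozzle, using 50 ml formulations. Afterward they were returned to the greenhouse and watered only by sub-irrigation. Percent control was judged visually two weeks after treatment.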

[5] = tested on: Corn (CN); test: Post-emergence herbicide test; format: in vivo; settings: Zea mays, 336 h, 8 lb/acre, two weeks after treatment
Procedure, shortened: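 Greenhouse seedlings grown in potting soil and sprayed post-emergence at 8 lbs compound/acre (formulations also made for 4 lbs/acre) in 38 gallons/acre spray volume. Watering by sub-irrigation only. Injury or control rated visually two weeks after treatment.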

[6] = tested on: Bean (BN); test: Pre-emergence herbicide test; format: in vivo, Phaseolus vulgaris var. Black Valentine; settings: Phaseolus vulgaris, 336 h, 8 lb/acre, two weeks after treatment
Procedure, shortened: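 Visual injury/control ratings were taken two weeks post-spray on sub-irrigated Phaseolus vulgaris var. Black Valentine. Pots were sown a day before treatment. Pre-emergence spray delivered 8 lbs actual compound per acre (or 4 lbs/acre) at 38 gallons per acre.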

[7] = tested on: Johnson grass (JG); test: Pre-emergence herbicide test; format: in vivo, Sorgum helepense; settings: Sorghum halepense, 336 h, 8 lb/acre, two weeks after treatment
Procedure, shortened: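 Visual injury or control rating two weeks post-treatment, after pre-emergence spray of 8 or 4 lbs active per acre (38 gal/acre) onto pots sown the previous day. Greenhouse watering by sub-irrigation only.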

[8] = tested on: Yellow foxtail grass (YF); test: Post-emergence herbicide test; format: in vivo, Setaria glauca; settings: Setaria, 336 h, 8 lb/acre, two weeks after treatment
Procedure, shortened: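 Visual rating of injury/control made 2 weeks post-spray. Seedlings at a uniform growth stage in soil-filled pots received a hood spray of 8 lbs/acre active compound, 38 gallons/acre volume, with a 4 lbs/acre rate also formulated. Watering was by sub-irrigation only.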

[9] = tested on: Turnip (TP); test: Pre-emergence herbicide test; format: in vivo, Brassica sp.; settings: Brassica rapa, pre-emergence, 336 h; 8 lb/acre; two weeks after treatment
Procedure, shortened: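 In this pre-emergence greenhouse test, turnip was seeded on the surface of potting soil in 3' plastic pots, lightly covered with screened soil, and watered from below. One day later the pots were sprayed in a belt-fed spray hood. Watering continued only by sub-irrigation, and percent control was visually scored two weeks after treatment.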

[10] = tested on: Turnip (TP); test: Post-emergence herbicide test; format: in vivo, Brassica sp.; settings: Brassica rapa, post-emergence, 336 h; 8 lb/acre; two weeks after treatment
Procedure, shortened: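 A greenhouse post-emergence herbicide test on turnip. Seeds were sown on the surface of potting soil in 3' plastic pots, lightly covered with screened soil and watered from below. Planting was timed so seedlings had 1 or 2 true leaves above the cotyledons at spraying, done in a hood with a fixed nozzle. Control or injury was scored by eye after two weeks.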

[11] = tested on: Johnson grass (JG); test: Post-emergence herbicide test; format: in vivo, Sorgum helepense; settings: Sorghum halepense, 336 h, 8 lb/acre, two weeks after treatment
Procedure, shortened: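 Visual injury or control scores taken 2 weeks after a post-emergence spray of pot-grown plants. Application was 8 lbs/acre (or 4 lbs/acre) in 38 gal/acre. Plants were held in the greenhouse with sub-irrigation only.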

[12] = tested on: Barnyard grass (BG); test: Post-emergence herbicide test; format: in vivo; settings: Echinochloa crus-galli, 336 h, 8 lb/acre, two weeks after treatment
Procedure, shortened: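 Greenhouse pot-grown barnyard grass seedlings sprayed post-emergence at 8 lbs active compound per acre (some at 4 lbs/acre) in 38 gallons per acre, then sub-irrigated. Injury or control rated visually two weeks after treatment.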

[13] = tested on: Barnyard grass (BG); test: Pre-emergence herbicide test; format: in vivo; settings: Echinochloa crus-galli, 336 h, 8 lb/acre, two weeks after treatment
Procedure, shortened: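 Greenhouse pre-emergence spray test: pots seeded one day before treatment received compound at rates of 8 or 4 lb/acre (38 gal/acre). Visual injury/control scores for Echinochloa crus-galli taken at two weeks, with watering by sub-irrigation only.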

[14] = tested on: Cotton (CT); test: Post-emergence herbicide test; format: in vivo, Gossypium hirsutum var. DPL smooth leaf; settings: Gossypium hirsutum, post-emergence, 336 h; 8 lb/acre; two weeks after treatment
Procedure, shortened: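 This greenhouse post-emergence test measured how well spray treatments controlled cotton. Seedlings of Gossypium hirsutum var. DPL smooth leaf, with expanded cotyledons and a first true leaf 1' in length, were sprayed with 50 ml formulations in a belt-fed spray hood. They were then returned to the greenhouse and watered only by sub-irrigation. Injury was scored visually as % control after two weeks.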

[15] = tested on: Corn (CN); test: Pre-emergence herbicide test; format: in vivo; settings: Zea mays, 336 h, 8 lb/acre, two weeks after treatment
Procedure, shortened: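 Visual injury/control ratings were made 2 weeks post-spray on corn pots seeded (4 seeds, seed-diameter depth) the day before treatment. Application was a belt-hood spray of 38 gal/acre delivering 8 lbs active per acre, with a 4 lbs/acre rate also formulated. Watering was by sub-irrigation throughout.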

[16] = tested on: Yellow foxtail grass (YF); test: Pre-emergence herbicide test; format: in vivo, Setaria glauca; settings: Setaria, 336 h, 8 lb/acre, two weeks after treatment
Procedure, shortened: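 Visual rating of injury/control made two weeks after a pre-emergence spray of 8 or 4 lbs active per acre (38 gal/acre) onto pots seeded the previous day. Greenhouse watering by sub-irrigation only.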

[17] = tested on: Crabgrass (CG); test: Post-emergence herbicide test; format: in vivo, Digitaria sanquinalis; settings: Digitaria sanguinalis, post-emergence, 336 h; 8 lb/acre; two weeks after treatment
Procedure, shortened: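 Crabgrass (Digitaria sanquinalis) was surface seeded individually in 3' plastic pots of potting soil, covered with screened soil, and watered by sub-irrigation in greenhouse trays. Planting was staggered so seedlings reached the target stage together. Post-emergence sprays were applied in a hood with a removable belt and fixed nozzle, and control was visually rated two weeks after treatment.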

[18] = tested on: variety of crops and weed species; test: Pre- and post-emergence herbicide tests, overall assessment of Tables III-VI; format: in vivo; settings: data of Tables III-VI
Protocol: All crop and weed species were planted individually in 3' plastic pots containing potting soil. Four seeds each of corn, cotton, and snapbeans were seeded to a depth equal to the diameter of the seed. All other species were surface seeded and sprinkled with screened soil in an amount sufficient to cover the seed. Immediately after planting, all pots were watered by sub-irrigation in greenhouse trays. Pots for the pre-emergence phase were seeded one day before treatment.
Compounds were tested at rates of application equivalent to 8 lbs. of actual compound per acre in a spray volume of 38 gallons per acre. Spray hood constants required to deliver the above volume are as follows:
Two weeks after treatment, pre- and post-emergence injury or control was visually rated, and the results were as shown in the following tables. Pre-emergence data are provided in TABLE III and post-emergence data are provided in TABLE IV, for compounds having the formula illustrated in TABLE I. Correspondingly, pre-emergence and post-emergence data, respectively, are set forth in TABLES V AND VI, for compounds having the formula illustrated in TABLE II.

Row | Structure (SMILES) | pest or weed control at 8966.8 g/ha [1] [%] | pest or weed control at 8966.8 g/ha [2] [%] | pest or weed control at 8966.8 g/ha [3] [%] | pest or weed control at 8966.8 g/ha [4] [%] | pest or weed control at 8966.8 g/ha [5] [%] | pest or weed control at 8966.8 g/ha [6] [%] | pest or weed control at 8966.8 g/ha [7] [%] | pest or weed control at 8966.8 g/ha [8] [%] | pest or weed control at 8966.8 g/ha [9] [%] | pest or weed control at 8966.8 g/ha [10] [%] | pest or weed control at 8966.8 g/ha [11] [%] | pest or weed control at 8966.8 g/ha [12] [%] | pest or weed control at 8966.8 g/ha [13] [%] | pest or weed control at 8966.8 g/ha [14] [%] | pest or weed control at 8966.8 g/ha [15] [%] | pest or weed control at 8966.8 g/ha [16] [%] | pest or weed control at 8966.8 g/ha [17] [%] | herbicidal effectiveness / selectivity, in words [18]
1 | CCNC(=O)Nc1nnc(C(F)(F)F)s1 [Example 9] | 30 | 100 | 10 | 70 | 30 | 100 | 10 | 30 | 10 | 60 | 80 | 40 | 20 | 50 | 50 | 20 | 60 | more selective when applied to a certain crop or weed species
2 | O=C(Nc1ccc(Cl)cc1)Nc1nnc(C(F)(F)F)s1 [Example 15] | 80 | 100 | 10 | 40 | 20 | 30 | 10 | 20 | 10 | 50 | 20 | 20 | 10 | 60 | 10 | 10 | 30 | more selective when applied to a certain crop or weed species

Source: patent US4175081A, “5-Substituted thiadiazole ureas” (priority 1977, dated 1979)
